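Values below derive from 48-hour exposures of cells grown in 96-well plates, with endpoints linearly interpolated between the two concentrations bracketing the appropriate inhibition level. GI50: concentration for 50% inhibition of growth. TGI is the concentration that stops growth completely.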
Columns and labels:
Assay in all cases: NCI anticancer screen, dose series, 48 h
[1] = tested on: 786-0 renal
[2] = tested on: A498 renal
[3] = tested on: A549 NSCLC
[4] = tested on: ACHN renal
[5] = tested on: BT-549 breast
[6] = tested on: CAKI-1 renal
[7] = tested on: CCRF-CEM leukemia
[8] = tested on: COLO 205 colon
[9] = tested on: DU-145 prostate
[10] = tested on: HCC-2998 colon
[11] = tested on: HCT-116 colon
[12] = tested on: HCT-15 colon
[13] = tested on: HL-60(TB) leukemia
[14] = tested on: HOP-62 NSCLC
[15] = tested on: HOP-92 NSCLC
[16] = tested on: HS 578T breast
[17] = tested on: HT29 colon
[18] = tested on: IGROV1 ovarian
[19] = tested on: K-562 leukemia
[20] = tested on: KM12 colon
[21] = tested on: LOX IMVI melanoma
[22] = tested on: M14 melanoma
[23] = tested on: MALME-3M melanoma
[24] = tested on: MCF7 breast
[25] = tested on: MDA-MB-231 breast
[26] = tested on: MDA-MB-435
[27] = tested on: MOLT-4 leukemia
[28] = tested on: NCI-H226 lung
[29] = tested on: NCI-H23 lung
[30] = tested on: NCI-H460 lung
[31] = tested on: NCI-H522 lung
[32] = tested on: NCI/ADR-RES ovarian
[33] = tested on: OVCAR-3 ovarian
[34] = tested on: OVCAR-4 ovarian
[35] = tested on: OVCAR-5 ovarian
[36] = tested on: OVCAR-8 ovarian
[37] = tested on: PC-3 prostate
[38] = tested on: RPMI-8226 leukemia
[39] = tested on: RXF 393 renal
[40] = tested on: SF-268 CNS
[41] = tested on: SF-295 CNS
[42] = tested on: SF-539 CNS
[43] = tested on: SK-MEL-2 melanoma
[44] = tested on: SK-MEL-28 melanoma
[45] = tested on: SK-MEL-5 melanoma
[46] = tested on: SK-OV-3 ovarian
[47] = tested on: SN12C renal
[48] = tested on: SNB-19 CNS
[49] = tested on: SNB-75 CNS
[50] = tested on: SR leukemia
[51] = tested on: SW-620 colon
[52] = tested on: T-47D breast
[53] = tested on: TK-10 renal
[54] = tested on: U251 CNS
[55] = tested on: UACC-257 melanoma
[56] = tested on: UACC-62 melanoma
[57] = tested on: UO-31 renal

With `CC(C)OP(=O)(OC(C)C)c1ncc(-c2ccc(C(F)(F)F)cc2)c(NC2CCCCCC2)n1` the GI50 [1] was greater than 10 µM, the TGI [1] was greater than 10 µM and the GI50 [2] was greater than 10 µM. The TGI [2] was greater than 10 µM, the GI50 [3] was greater than 10 µM and the TGI [3] was greater than 10 µM. It also gave a GI50 [4] greater than 10 µM, a TGI [4] greater than 10 µM and a GI50 [5] greater than 10 µM. For the same compound, the TGI [5] was greater than 10 µM, the GI50 [6] was greater than 10 µM and the TGI [6] was greater than 10 µM. It also gave a GI50 [7] greater than 10 µM, a TGI [7] greater than 10 µM and a GI50 [8] greater than 10 µM. For the same compound, the TGI [8] was greater than 10 µM, the GI50 [9] was greater than 10 µM and the TGI [9] was greater than 10 µM. For the same compound, the GI50 [10] was greater than 10 µM, the TGI [10] was greater than 10 µM and the GI50 [11] was greater than 10 µM. It also gave a TGI [11] greater than 10 µM, a GI50 [12] greater than 10 µM and a TGI [12] greater than 10 µM. For the same compound, the GI50 [13] was greater than 10 µM, the TGI [13] was greater than 10 µM and the GI50 [14] was greater than 10 µM. It also gave a TGI [14] greater than 10 µM, a GI50 [15] greater than 10 µM and a TGI [15] greater than 10 µM. For the same compound, the GI50 [16] was greater than 10 µM, the TGI [16] was greater than 10 µM and the GI50 [17] was greater than 10 µM. It also gave a TGI [17] greater than 10 µM, a GI50 [18] greater than 10 µM and a TGI [18] greater than 10 µM. The GI50 [19] was greater than 10 µM, the TGI [19] was greater than 10 µM and the GI50 [20] was greater than 10 µM. It also gave a TGI [20] greater than 10 µM, a GI50 [21] greater than 10 µM and a TGI [21] greater than 10 µM. It also gave a GI50 [22] greater than 10 µM, a TGI [22] greater than 10 µM and a GI50 [23] greater than 10 µM. The TGI [23] was greater than 10 µM, the GI50 [24] was greater than 10 µM and the TGI [24] was greater than 10 µM. For the same compound, the GI50 [25] was greater than 10 µM, the TGI [25] was greater than 10 µM and the GI50 [26] was greater than 10 µM. The TGI [26] was greater than 10 µM, the GI50 [27] was greater than 10 µM and the TGI [27] was greater than 10 µM. It also gave a GI50 [28] greater than 10 µM, a TGI [28] greater than 10 µM and a GI50 [29] greater than 10 µM. For the same compound, the TGI [29] was greater than 10 µM, the GI50 [30] was greater than 10 µM and the TGI [30] was greater than 10 µM. It also gave a GI50 [31] greater than 10 µM, a TGI [31] greater than 10 µM and a GI50 [32] greater than 10 µM. For the same compound, the TGI [32] was greater than 10 µM, the GI50 [33] was greater than 10 µM and the TGI [33] was greater than 10 µM. The GI50 [34] was greater than 10 µM, the TGI [34] was greater than 10 µM and the GI50 [35] was greater than 10 µM. For the same compound, the TGI [35] was greater than 10 µM, the GI50 [36] was greater than 10 µM and the TGI [36] was greater than 10 µM. The GI50 [37] was 9.51 µM, the TGI [37] was greater than 10 µM and the GI50 [38] was greater than 10 µM. For the same compound, the TGI [38] was greater than 10 µM, the GI50 [39] was greater than 10 µM and the TGI [39] was greater than 10 µM. For the same compound, the GI50 [40] was greater than 10 µM, the TGI [40] was greater than 10 µM and the GI50 [41] was greater than 10 µM. For the same compound, the TGI [41] was greater than 10 µM, the GI50 [42] was greater than 10 µM and the TGI [42] was greater than 10 µM. The GI50 [43] was greater than 10 µM, the TGI [43] was greater than 10 µM and the GI50 [44] was greater than 10 µM. For the same compound, the TGI [44] was greater than 10 µM, the GI50 [45] was greater than 10 µM and the TGI [45] was greater than 10 µM. The GI50 [46] was greater than 10 µM, the TGI [46] was greater than 10 µM and the GI50 [47] was greater than 10 µM. For the same compound, the TGI [47] was greater than 10 µM, the GI50 [48] was greater than 10 µM and the TGI [48] was greater than 10 µM. The GI50 [49] was greater than 10 µM, the TGI [49] was greater than 10 µM and the GI50 [50] was greater than 10 µM. The TGI [50] was greater than 10 µM, the GI50 [51] was greater than 10 µM and the TGI [51] was greater than 10 µM. The GI50 [52] was greater than 10 µM, the TGI [52] was greater than 10 µM and the GI50 [53] was greater than 10 µM. For the same compound, the TGI [53] was greater than 10 µM, the GI50 [54] was greater than 10 µM and the TGI [54] was greater than 10 µM. The GI50 [55] was greater than 10 µM, the TGI [55] was greater than 10 µM and the GI50 [56] was greater than 10 µM. The TGI [56] was greater than 10 µM, the GI50 [57] was greater than 10 µM and the TGI [57] was greater than 10 µM.
